Assay results taken from ChEMBL document CHEMBL1201862, “PubChem BioAssay data set” (2004).
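Five compound concentrations were applied to cells in 96-well plates for 48 hours; endpoints were derived by simple linear interpolation of the resulting dose-response curve. GI50 = concentration required for 50% inhibition of growth.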 Activity calls are given as the source filed them. Cut-off read from the data, not from the text of the source: active = GI50 up to about 1.1 µM and inactive = higher.

Key:
Experiment in all cases: DTP human tumour cell line panel, 48 h
[1] = tested on: SNB-75
[2] = tested on: HOP-92
[3] = tested on: OVCAR-8
[4] = tested on: A549
[5] = tested on: SK-MEL-28
[6] = tested on: IGROV-1
[7] = tested on: MDA-MB-231
[8] = tested on: SN12C
[9] = tested on: SR
[10] = tested on: HT-29
[11] = tested on: KM12
[12] = tested on: NCI/ADR-RES
[13] = tested on: SF-539
[14] = tested on: M14
[15] = tested on: MDA-MB-435
[16] = tested on: SNB-19
[17] = tested on: TK-10
[18] = tested on: SW-620
[19] = tested on: MOLT-4
[20] = tested on: NCI-H23

Compound: Cc1ccc(C2=Nc3cc(C)c(Cl)cc3S(=O)(=O)NN2)cc1
- GI50 [1]: > 100 µM (inactive)
- GI50 [2]: > 100 µM (inactive)
- GI50 [3]: > 100 µM (inactive)
- GI50 [4]: 57.8 µM (inactive)
- GI50 [5]: > 100 µM (inactive)
- GI50 [6]: > 100 µM (inactive)
- GI50 [7]: 23.3 µM (inactive)
- GI50 [8]: > 100 µM (inactive)
- GI50 [9]: 20 µM (inactive)
- GI50 [10]: > 100 µM (inactive)
- GI50 [11]: > 100 µM (inactive)
- GI50 [12]: > 100 µM (inactive)
- GI50 [13]: > 100 µM (inactive)
- GI50 [14]: > 100 µM (inactive)
- GI50 [15]: > 100 µM (inactive)
- GI50 [16]: 44.6 µM (inactive)
- GI50 [17]: 49.5 µM (inactive)
- GI50 [18]: > 100 µM (inactive)
- GI50 [19]: 37.9 µM (inactive)
- GI50 [20]: > 100 µM (inactive)

Compound: CC(=O)NC1=C(C)C(=O)c2c(nc3n2CCC3OC(=O)c2ccccc2)C1=N (centres undefined)
- GI50 [1]: 2.37 µM (inactive)
- GI50 [2]: 2.15 µM (inactive)
- GI50 [3]: 1.04 µM (active)
- GI50 [4]: 3.18 µM (inactive)
- GI50 [5]: 1.8 µM (inactive)
- GI50 [6]: 1.74 µM (inactive)
- GI50 [7]: 2.07 µM (inactive)
- GI50 [8]: 1.72 µM (inactive)
- GI50 [9]: 2.29 µM (inactive)
- GI50 [10]: 0.973 µM (active)
- GI50 [11]: 4.55 µM (inactive)
- GI50 [12]: 2.93 µM (inactive)
- GI50 [13]: 1.25 µM (inactive)
- GI50 [14]: 1.01 µM (active)
- GI50 [15]: 0.166 µM (active)
- GI50 [16]: 3.48 µM (inactive)
- GI50 [17]: 3.5 µM (inactive)
- GI50 [18]: 1.63 µM (inactive)
- GI50 [19]: 1.84 µM (inactive)
- GI50 [20]: 1.46 µM (inactive)

Compound: C=CC[C@H]1[C@@H](O[Si](C)(C)C(C)(C)C)[C@H](n2ccc(=O)[nH]c2=O)O[C@@H]1CO[Si](C)(C)C(C)(C)C
- GI50 [1]: 1.34 µM (inactive)
- GI50 [2]: 1.21 µM (inactive)
- GI50 [3]: 1.87 µM (inactive)
- GI50 [4]: 1.85 µM (inactive)
- GI50 [5]: 1.55 µM (inactive)
- GI50 [6]: 2.32 µM (inactive)
- GI50 [7]: 1.96 µM (inactive)
- GI50 [8]: 1.52 µM (inactive)
- GI50 [9]: 2.44 µM (inactive)
- GI50 [10]: 1.59 µM (inactive)
- GI50 [11]: 1.65 µM (inactive)
- GI50 [12]: 2.15 µM (inactive)
- GI50 [13]: 4.19 µM (inactive)
- GI50 [14]: 1.57 µM (inactive)
- GI50 [15]: 2 µM (inactive)
- GI50 [16]: 2.39 µM (inactive)
- GI50 [17]: 2.97 µM (inactive)
- GI50 [18]: 1.82 µM (inactive)
- GI50 [19]: 1.99 µM (inactive)
- GI50 [20]: 2.14 µM (inactive)

Compound: CC(C)=CCOc1cc(NC(=S)c2ccoc2C)ccc1Cl [UC 781]
- GI50 [1]: 16.3 µM (inactive)
- GI50 [2]: 8.77 µM (inactive)
- GI50 [3]: 34.8 µM (inactive)
- GI50 [4]: > 100 µM (inactive)
- GI50 [5]: > 100 µM (inactive)
- GI50 [6]: 65.2 µM (inactive)
- GI50 [7]: 35.5 µM (inactive)
- GI50 [8]: 34.7 µM (inactive)
- GI50 [9]: > 100 µM (inactive)
- GI50 [10]: > 100 µM (inactive)
- GI50 [11]: > 100 µM (inactive)
- GI50 [12]: > 100 µM (inactive)
- GI50 [13]: > 100 µM (inactive)
- GI50 [15]: > 100 µM (inactive)
- GI50 [16]: 81.1 µM (inactive)
- GI50 [17]: > 100 µM (inactive)
- GI50 [18]: > 100 µM (inactive)
- GI50 [19]: 9.38 µM (inactive)
- GI50 [20]: > 100 µM (inactive)

Compound: COC(=O)C12C3C4(C(=O)OC)C1C1(C(=O)OC)C2C3(C(=O)OC)C41C(=O)N(C(C)C)C(C)C (centres undefined)
- GI50 [1]: > 100 µM (inactive)
- GI50 [2]: > 100 µM (inactive)
- GI50 [3]: > 100 µM (inactive)
- GI50 [4]: > 100 µM (inactive)
- GI50 [5]: > 100 µM (inactive)
- GI50 [6]: > 100 µM (inactive)
- GI50 [7]: > 100 µM (inactive)
- GI50 [8]: > 100 µM (inactive)
- GI50 [9]: > 100 µM (inactive)
- GI50 [10]: > 100 µM (inactive)
- GI50 [11]: > 100 µM (inactive)
- GI50 [12]: > 100 µM (inactive)
- GI50 [13]: > 100 µM (inactive)
- GI50 [14]: > 100 µM (inactive)
- GI50 [15]: > 100 µM (inactive)
- GI50 [16]: > 100 µM (inactive)
- GI50 [17]: > 100 µM (inactive)
- GI50 [18]: > 100 µM (inactive)
- GI50 [19]: > 100 µM (inactive)
- GI50 [20]: > 100 µM (inactive)
